Assay results published in ChEMBL document CHEMBL4052645, “Discovery of potent and efficacious pyrrolopyridazines as dual JAK1/3 inhibitors” (Bioorg Med Chem Lett, 2017).
pIC50: −log10 of the molar value. ≈ marks a conversion by molar mass, not a printed value. Calls of active or inactive are those of the source. No cut-off for these calls is given here.

Tests used:
[1] = system: Mus musculus; assay: Antiarthritic activity in collagen-induced arthritis mouse model assessed as reduction in inflammation at 2 mg/kg, po qd measured up to 41 days; assay type: functional, organism-based
[2] = Clearance of compound in mouse; assay type: ADME, organism-based; conditions: in vivo
[3] = system: Mus musculus; assay: Antiarthritic activity in collagen-induced mouse model assessed as […] at 10 mg/kg, po qd up to 41 days; assay type: functional, organism-based
[4] = system: Phosphatidylinositol 4,5-bisphosphate 3-kinase catalytic subunit alpha isoform (Homo sapiens), P42336 [H1047L]; assay: Inhibition of human partial length PIK3CA H1047L mutant (R108 to N1068 residues) expressed in mammalian expression system assessed as residual activity at 50 nM by Kinomescan method relative to control
[5] = species on record: Mus musculus; assay: Clearance of compound in mouse relative to hepatic blood flow; assay type: ADME; conditions: in vivo
[6] = biological target: Mitogen-activated protein kinase kinase kinase 1 (Homo sapiens) (UniProt Q13233); assay: Inhibition of wild-type human partial length MAP3K1 (L1202 to W1512 residues) expressed in mammalian expression system assessed as residual activity at 50 nM by Kinomescan method relative to control
[7] = Metabolic stability in mouse liver microsomes assessed as compound remaining after 10 mins; assay type: ADME, microsome; conditions: read-out: Stability
[8] = biological target: Cytochrome P450 3A4 (Homo sapiens, UniProt P08684); assay: Inhibition of CYP3A4 (unknown origin); assay type: ADME
[9] = Aqueous solubility of compound at pH 6.5; assay type: physicochemical
[10] = Volume of distribution at steady state in BALB/c mouse at 2 mg/kg, iv; assay type: ADME, organism-based; conditions: in vivo, read-out: Vdss
[11] = Cmax in mouse at 10 mg/kg, po after 24 hrs; assay type: ADME, organism-based; design: dose 10 mg/kg, route oral; conditions: in vivo
[12] = Half life in human liver microsomes; assay type: ADME, microsome
[13] = system: Casein kinase I isoform alpha-like; assay: Inhibition of CK1A2 (unknown origin) assessed as residual activity at 50 nM by Kinomescan method relative to control; conditions: Homo sapiens
[14] = Selectivity ratio of IC50 for JAK2 dependent EPO-induced STAT5A phosphorylation in human TF1 cells to IC50 for JAK1/JAK3 dependent IL2-induced STAT3 phosphorylation in human PBMC derived T-cells
[15] = AUC in Sprague-Dawley rat at 10 mg/kg, po; assay type: ADME, organism-based; conditions: in vivo
[16] = system: Mitogen-activated protein kinase kinase kinase 12; assay: Inhibition of wild-type human full length DLK (M1 to P859 residues) expressed in mammalian expression system assessed as residual activity at 50 nM by Kinomescan method relative to control
[17] = AUC in BALB/c mouse at 10 mg/kg, po; assay type: ADME, organism-based; conditions: in vivo
[18] = biological target: Rho-associated protein kinase 2 (Homo sapiens, UniProt O75116); assay: Inhibition of Rho-associated protein kinase 2 (unknown origin)
[19] = Permeability from apical side to basolateral side in human Caco2 cells; assay type: ADME, cell-based; conditions: Caco-2, read-out: permeability
[20] = Clearance in Sprague-Dawley rat at 2 mg/kg, iv; assay type: ADME, organism-based; conditions: in vivo
[21] = Tmax in BALB/c mouse at 10 mg/kg, po; assay type: ADME, organism-based; conditions: in vivo
[22] = Cmin in mouse at 10 mg/kg, po after 24 hrs; assay type: ADME, organism-based; conditions: in vivo, read-out: Cmin
[23] = biological target: Rho-associated protein kinase 1 (Homo sapiens, UniProt Q13464); assay: Inhibition of Rho-associated protein kinase 1 (unknown origin)
[24] = biological target: Serine/threonine-protein kinase PAK 6 (Homo sapiens) (UniProt Q9NQU5); assay: Inhibition of wild-type human partial length PAK6 (N298 to C681 residues) expressed in bacterial expression system assessed as residual activity at 50 nM by Kinomescan method relative to control
[25] = biological target: Calcium/calmodulin-dependent protein kinase type 1 (Homo sapiens) (UniProt Q14012); assay: Inhibition of wild-type human full length CAMK1A (M1 to L370 residues) expressed in bacterial expression system assessed as residual activity at 50 nM by Kinomescan method relative to control
[26] = AUC in BALB/c mouse at 2 mg/kg, iv; assay type: ADME, organism-based; conditions: in vivo
[27] = biological target: Tyrosine-protein kinase JAK1 (Homo sapiens, UniProt P23458); assay: Inhibition of wild-type human partial length JAK1 JH2 pseudokinase domain (R537 to D855 residues) expressed in mammalian expression system assessed as residual activity at 50 nM by Kinomescan method relative to control
[28] = system: Ribosomal protein S6 kinase alpha-2; assay: Inhibition of wild-type human partial length C-terminal RSK3 kinase domain 2 (V403 to K700 residues) expressed in bacterial expression system assessed as residual activity at 50 nM by Kinomescan method relative to control
[29] = biological target: Serine/threonine-protein kinase STK11 (Homo sapiens) (UniProt Q15831); assay: Inhibition of wild-type human full length LKB1 (M1 to Q433 residues) expressed in bacterial expression system assessed as residual activity at 50 nM by Kinomescan method relative to control
[30] = biological target: Serine/threonine-protein kinase PLK4 (Homo sapiens) (UniProt O00444); assay: Inhibition of wild-type human partial length PLK4 (M1 to S273 residues) expressed in mammalian expression system assessed as residual activity at 50 nM by Kinomescan method relative to control
[31] = biological target: Casein kinase I isoform alpha (Homo sapiens) (UniProt P48729); assay: Inhibition of wild-type human partial length CK1A (M1 to L450 residues) expressed in mammalian expression system assessed as residual activity at 50 nM by Kinomescan method relative to control
[32] = biological target: Dual specificity tyrosine-phosphorylation-regulated kinase 1B (Homo sapiens) (UniProt Q9Y463); assay: Inhibition of wild-type human full length DYRK1B (M1 to S629 residues) expressed in bacterial expression system assessed as residual activity at 50 nM by Kinomescan method relative to control
[33] = system: Oryctolagus cuniculus; assay: Cardiotoxicity in rabbit assessed as increase in heart rate at >3 mg/kg; assay type: toxicity, organism-based; conditions: in vivo
[34] = biological target: T1, Voltage-gated inwardly rectifying potassium channel KCNH2 (Homo sapiens, UniProt Q12809); assay: Inhibition of human ERG by flux-based assay
[35] = biological target: Mitogen-activated protein kinase 9 (Homo sapiens) (UniProt P45984); assay: Inhibition of wild-type human full length JNK2 (M1 to Q382 residues) expressed in mammalian expression system assessed as residual activity at 50 nM by Kinomescan method relative to control
[36] = Tmax in Sprague-Dawley rat at 10 mg/kg, po; assay type: ADME, organism-based; conditions: in vivo
[37] = biological target: Myosin light chain kinase family member 4 (Homo sapiens) (UniProt Q86YV6); assay: Inhibition of wild-type human partial length SGK085 (V79 to S380 residues) expressed in bacterial expression system assessed as residual activity at 50 nM by Kinomescan method relative to control
[38] = biological target: T1, Voltage-gated inwardly rectifying potassium channel KCNH2; assay: Inhibition of human ERG by patch clamp method
[39] = biological target: Protein kinase C iota type (Homo sapiens) (UniProt P41743); assay: Inhibition of recombinant human PKCiota (H215 to V587 residues) expressed in mammalian expression system assessed as residual activity at 50 nM by Kinomescan method relative to control

T1 sequence (Q12809 whole entry, the tested form may be a part): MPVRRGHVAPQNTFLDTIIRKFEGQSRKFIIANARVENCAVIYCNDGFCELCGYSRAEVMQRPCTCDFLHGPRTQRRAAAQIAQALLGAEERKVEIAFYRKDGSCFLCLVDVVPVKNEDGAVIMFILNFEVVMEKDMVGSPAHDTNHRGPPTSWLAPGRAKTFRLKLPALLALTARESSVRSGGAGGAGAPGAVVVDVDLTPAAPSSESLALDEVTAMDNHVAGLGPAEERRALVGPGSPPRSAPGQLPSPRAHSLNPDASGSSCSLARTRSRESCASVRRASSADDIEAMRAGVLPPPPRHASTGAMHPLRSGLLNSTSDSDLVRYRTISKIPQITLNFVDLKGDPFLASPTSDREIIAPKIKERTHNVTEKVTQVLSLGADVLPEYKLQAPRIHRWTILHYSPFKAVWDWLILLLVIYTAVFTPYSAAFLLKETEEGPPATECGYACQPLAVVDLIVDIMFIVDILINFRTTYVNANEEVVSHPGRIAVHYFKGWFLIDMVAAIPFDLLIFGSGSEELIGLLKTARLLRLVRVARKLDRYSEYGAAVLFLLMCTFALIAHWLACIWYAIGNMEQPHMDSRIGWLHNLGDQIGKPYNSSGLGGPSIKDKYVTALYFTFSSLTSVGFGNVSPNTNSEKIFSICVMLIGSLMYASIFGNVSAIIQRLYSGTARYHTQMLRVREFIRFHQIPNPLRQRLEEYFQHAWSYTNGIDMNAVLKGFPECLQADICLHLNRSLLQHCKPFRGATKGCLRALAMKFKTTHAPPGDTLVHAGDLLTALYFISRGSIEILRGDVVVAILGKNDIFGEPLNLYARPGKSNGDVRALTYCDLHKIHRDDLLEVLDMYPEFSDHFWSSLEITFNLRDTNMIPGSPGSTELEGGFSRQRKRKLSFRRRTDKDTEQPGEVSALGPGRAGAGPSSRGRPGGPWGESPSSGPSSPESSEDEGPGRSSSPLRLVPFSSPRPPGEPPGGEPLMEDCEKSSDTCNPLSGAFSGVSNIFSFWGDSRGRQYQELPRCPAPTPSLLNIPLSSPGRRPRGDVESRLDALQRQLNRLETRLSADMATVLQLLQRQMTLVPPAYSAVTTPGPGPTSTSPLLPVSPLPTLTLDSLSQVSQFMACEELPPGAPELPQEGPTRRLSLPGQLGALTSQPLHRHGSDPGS
Mitogen-activated protein kinase 9 (Homo sapiens), sequence (P45984 whole entry, looked up, the tested form may be a part): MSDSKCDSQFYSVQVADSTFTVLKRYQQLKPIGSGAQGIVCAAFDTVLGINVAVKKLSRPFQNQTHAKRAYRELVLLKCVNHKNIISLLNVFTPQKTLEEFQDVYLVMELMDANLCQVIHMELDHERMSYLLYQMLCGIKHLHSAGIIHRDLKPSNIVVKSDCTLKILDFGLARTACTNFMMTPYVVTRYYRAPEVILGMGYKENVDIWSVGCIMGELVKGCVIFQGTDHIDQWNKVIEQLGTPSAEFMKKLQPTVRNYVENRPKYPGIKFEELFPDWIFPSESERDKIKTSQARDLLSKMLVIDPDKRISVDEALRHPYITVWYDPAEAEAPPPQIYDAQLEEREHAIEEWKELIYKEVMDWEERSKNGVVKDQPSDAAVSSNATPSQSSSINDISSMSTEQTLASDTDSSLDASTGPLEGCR
Dual specificity tyrosine-phosphorylation-regulated kinase 1B (Homo sapiens), sequence (Q9Y463 whole entry, looked up, the tested form may be a part): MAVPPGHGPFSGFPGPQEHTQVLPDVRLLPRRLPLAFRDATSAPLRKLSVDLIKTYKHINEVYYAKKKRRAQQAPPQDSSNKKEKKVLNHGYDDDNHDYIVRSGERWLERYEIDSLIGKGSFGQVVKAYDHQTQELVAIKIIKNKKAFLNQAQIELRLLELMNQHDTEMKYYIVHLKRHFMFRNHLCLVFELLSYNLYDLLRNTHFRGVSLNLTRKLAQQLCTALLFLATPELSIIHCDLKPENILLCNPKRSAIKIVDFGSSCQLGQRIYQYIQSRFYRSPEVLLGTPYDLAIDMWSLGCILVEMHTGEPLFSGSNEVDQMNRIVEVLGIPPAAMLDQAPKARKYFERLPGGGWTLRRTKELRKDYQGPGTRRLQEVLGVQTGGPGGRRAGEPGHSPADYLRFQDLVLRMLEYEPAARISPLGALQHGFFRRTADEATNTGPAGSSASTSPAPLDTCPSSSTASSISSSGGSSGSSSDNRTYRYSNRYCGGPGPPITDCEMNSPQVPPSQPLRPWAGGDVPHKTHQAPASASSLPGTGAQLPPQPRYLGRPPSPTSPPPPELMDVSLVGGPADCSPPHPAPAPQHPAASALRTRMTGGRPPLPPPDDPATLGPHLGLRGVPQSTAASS
Serine/threonine-protein kinase PAK 6 (Homo sapiens), sequence (Q9NQU5 whole entry, looked up, the tested form may be a part): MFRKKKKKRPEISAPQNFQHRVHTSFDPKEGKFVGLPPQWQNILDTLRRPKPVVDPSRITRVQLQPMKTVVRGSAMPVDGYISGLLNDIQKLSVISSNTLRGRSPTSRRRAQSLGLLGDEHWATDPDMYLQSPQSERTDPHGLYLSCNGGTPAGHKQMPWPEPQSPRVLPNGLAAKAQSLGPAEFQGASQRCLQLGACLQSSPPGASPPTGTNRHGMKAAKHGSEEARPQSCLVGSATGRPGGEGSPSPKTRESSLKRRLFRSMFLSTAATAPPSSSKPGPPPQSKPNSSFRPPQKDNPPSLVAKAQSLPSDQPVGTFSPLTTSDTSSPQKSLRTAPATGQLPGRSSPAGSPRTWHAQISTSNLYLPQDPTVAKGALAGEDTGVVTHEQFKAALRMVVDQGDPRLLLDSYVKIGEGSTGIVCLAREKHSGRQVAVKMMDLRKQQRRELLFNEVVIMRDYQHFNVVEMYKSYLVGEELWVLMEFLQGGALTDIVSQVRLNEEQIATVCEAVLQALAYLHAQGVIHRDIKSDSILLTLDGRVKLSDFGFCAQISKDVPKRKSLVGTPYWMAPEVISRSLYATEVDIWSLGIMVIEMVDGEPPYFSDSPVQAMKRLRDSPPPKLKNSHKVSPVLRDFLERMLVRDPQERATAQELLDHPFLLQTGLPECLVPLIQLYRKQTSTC
Phosphatidylinositol 4,5-bisphosphate 3-kinase catalytic subunit alpha isoform (Homo sapiens), P42336 [H1047L], sequence (P42336 whole entry H1047L, the tested form may be a part, canonical isoform): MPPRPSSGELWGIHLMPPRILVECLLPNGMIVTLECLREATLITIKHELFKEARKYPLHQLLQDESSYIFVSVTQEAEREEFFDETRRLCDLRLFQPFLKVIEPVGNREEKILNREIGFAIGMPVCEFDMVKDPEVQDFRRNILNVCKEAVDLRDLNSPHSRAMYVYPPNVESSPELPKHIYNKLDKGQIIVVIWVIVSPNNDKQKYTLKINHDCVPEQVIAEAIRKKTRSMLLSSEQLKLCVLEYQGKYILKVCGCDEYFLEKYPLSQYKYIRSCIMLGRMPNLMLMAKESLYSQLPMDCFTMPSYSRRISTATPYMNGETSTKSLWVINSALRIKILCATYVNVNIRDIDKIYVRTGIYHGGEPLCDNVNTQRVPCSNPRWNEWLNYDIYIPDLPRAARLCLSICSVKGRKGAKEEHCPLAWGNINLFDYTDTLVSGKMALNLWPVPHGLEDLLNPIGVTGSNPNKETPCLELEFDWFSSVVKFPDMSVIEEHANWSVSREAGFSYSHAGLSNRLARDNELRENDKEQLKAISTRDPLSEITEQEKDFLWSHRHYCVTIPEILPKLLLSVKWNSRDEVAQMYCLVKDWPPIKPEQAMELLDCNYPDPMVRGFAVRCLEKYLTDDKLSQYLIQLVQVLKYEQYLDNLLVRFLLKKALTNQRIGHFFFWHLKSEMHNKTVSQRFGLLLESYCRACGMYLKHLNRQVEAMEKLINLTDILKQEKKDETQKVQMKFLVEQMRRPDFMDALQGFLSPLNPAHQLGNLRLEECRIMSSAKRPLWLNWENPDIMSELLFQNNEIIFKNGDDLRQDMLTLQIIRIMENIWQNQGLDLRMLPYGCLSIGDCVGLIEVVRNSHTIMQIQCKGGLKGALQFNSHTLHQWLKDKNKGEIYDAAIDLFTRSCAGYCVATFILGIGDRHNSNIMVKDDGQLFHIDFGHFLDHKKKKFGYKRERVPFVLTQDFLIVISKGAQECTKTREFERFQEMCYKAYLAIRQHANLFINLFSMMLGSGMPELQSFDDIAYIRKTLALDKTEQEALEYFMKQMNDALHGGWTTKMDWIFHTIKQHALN
Myosin light chain kinase family member 4 (Homo sapiens), sequence (Q86YV6 whole entry, the tested form may be a part): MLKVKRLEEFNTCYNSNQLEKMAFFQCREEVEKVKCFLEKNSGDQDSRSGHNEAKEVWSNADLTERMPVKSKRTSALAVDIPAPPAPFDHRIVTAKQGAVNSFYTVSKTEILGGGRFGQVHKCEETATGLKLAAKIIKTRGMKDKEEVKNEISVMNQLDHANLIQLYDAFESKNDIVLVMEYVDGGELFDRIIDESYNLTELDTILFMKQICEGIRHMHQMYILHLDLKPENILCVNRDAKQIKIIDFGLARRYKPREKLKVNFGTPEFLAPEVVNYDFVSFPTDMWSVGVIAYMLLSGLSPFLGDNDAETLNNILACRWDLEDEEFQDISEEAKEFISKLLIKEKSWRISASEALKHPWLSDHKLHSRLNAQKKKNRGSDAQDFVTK
Cytochrome P450 3A4, sequence (P08684 whole entry): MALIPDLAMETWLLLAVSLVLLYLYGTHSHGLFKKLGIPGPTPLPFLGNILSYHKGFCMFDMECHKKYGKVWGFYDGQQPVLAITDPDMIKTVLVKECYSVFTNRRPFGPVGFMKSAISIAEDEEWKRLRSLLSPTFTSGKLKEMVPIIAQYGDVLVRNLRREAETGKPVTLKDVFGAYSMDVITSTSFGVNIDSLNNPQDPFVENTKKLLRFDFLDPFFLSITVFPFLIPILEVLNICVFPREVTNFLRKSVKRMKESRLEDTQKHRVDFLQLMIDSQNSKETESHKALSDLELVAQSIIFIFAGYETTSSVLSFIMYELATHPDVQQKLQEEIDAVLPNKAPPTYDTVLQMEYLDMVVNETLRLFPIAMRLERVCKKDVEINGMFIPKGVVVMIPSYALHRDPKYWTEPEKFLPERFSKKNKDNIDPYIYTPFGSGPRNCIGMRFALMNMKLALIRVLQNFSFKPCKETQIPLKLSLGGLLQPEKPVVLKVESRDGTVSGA

Question: With `CC1(C)[C@H](Nc2c(C(N)=O)cnn3cc(-c4ccccc4)cc23)CC[C@]1(C)N` as the compound, how does the Activity [1] read?
Answer: inactive

Question: What about the clearance [2] of the same compound?
Answer: 29 mL/min/kg

Question: What about the Activity [3] of the same compound?
Answer: Active

Question: What about the Activity [4] of the same compound?
Answer: 95%

Question: And the CL [5]?
Answer: 32%

Question: With `COc1ccc(-c2cc3c(N[C@@H]4CC[C@](C)(N)C4(C)C)c(C(N)=O)cnn3c2)cn1` as the compound, how does the Activity [6] read?
Answer: 98%

Question: What about the remaining at 10 min [7] of the same compound?
Answer: 95%

Question: And the pIC50 [8]?
Answer: 4.96

Question: What about the solubility [9] of the same compound?
Answer: 79 µg/mL (≈ 193 µM)

Question: What about the Vd [10] of the same compound?
Answer: 8.2 L/kg

Question: And the Cmax [11]?
Answer: 1100 nM

Question: And the half-life [12]?
Answer: > 1.5 h

Question: What about the Activity [13] of the same compound?
Answer: 97%

Question: And the “Ratio IC50” value [14]?
Answer: 130

Question: And the AUC [15]?
Answer: 12.9 µM·h

Question: What about the Activity [16] of the same compound?
Answer: 81%

Question: And the AUC [17]?
Answer: 17.9 µM·h

Question: What about the pIC50 [18] of the same compound?
Answer: 7.37

Question: What about the Papp A→B [19] of the same compound?
Answer: 2.6 ×10⁻⁶ cm/s

Question: What about the clearance [20] of the same compound?
Answer: 14.1 mL/min/kg

Question: What about the Tmax [21] of the same compound?
Answer: 4 h

Question: What about the concentration at 24 h [22] of the same compound?
Answer: 300 nM

Question: And the pIC50 [23]?
Answer: 7.02

Question: What about the Activity [24] of the same compound?
Answer: 87%

Question: What about the Activity [25] of the same compound?
Answer: 100%

Question: What about the AUC [26] of the same compound?
Answer: 4.9 µM·h

Question: What about the Activity [27] of the same compound?
Answer: 78%

Question: And the Activity [28]?
Answer: 93%

Question: What about the Activity [29] of the same compound?
Answer: 100%

Question: And the Activity [30]?
Answer: 100%

Question: What about the Activity [31] of the same compound?
Answer: 84%

Question: And the Activity [32]?
Answer: 100%

Question: What about the Activity [33] of the same compound?
Answer: Toxic

Question: And the pIC50 [34]?
Answer: < 4.10

Question: And the Activity [35]?
Answer: 88%

Question: And the Tmax [36]?
Answer: 7.3 h

Question: And the Activity [37]?
Answer: 94%

Question: And the pIC50 [38]?
Answer: 5.52

Question: And the Activity [39]?
Answer: 100%
